Square brackets hold non-standard residues; d marks the D form. Ends that are not written are not given here.
Legend:
[1] = intracerebral (icv) administration; cited from earlier work
[2] = intravenous administration; more potent than morphine; cited from earlier work
CF-1 mice = assay: phenylbenzoquinone induced writhing test (modified Siegmund procedure); type: in vivo
Procedure: Biol. Med. 95 729-731 (1957), in which groups of ten CF-1 mice were administered, subcutaneously, known dosages of N(Me)Tyr--D--Asn--Gly--N(Me)Phe--D--Asn--NH2, as a compound representative of the group of compounds of this invention. Five minutes later, each animal received, i.p., 0.25 ml. of a 0.02 percent phenylbenzoquinone solution. The animals were observed over a ten minute period following the phenylbenzoquinone injection for the presence of writhing. […] The dose-response analysis was then performed according to Litchfiled et al., J. Pharmacol. exp. Therap. 96 99--113(1949). The ED50 for the test compound was 1.0 mg/kg (0.62-1.6) at 30 minutes by subcutaneous administration.

In the case of Tyr--D--Ala--Gly--Phe--Met--NH2 [III], the “analgesic activity after icv administration” value [1] is given as “potent and prolonged analgesia”.

In the case of Y[dM]GFP-NH2 [IV], the “potency relative to morphine” value [2] is given as 5.5 times.

In the case of “II: pentapeptide Tyr--Gly--Gly--Phe--X where X=Met, isolated by Hughes et al. (YGGFM; printed: Tyr--Gly--Gly--Phe--Met)”, the “analgesic activity after icv administration” value [1] is given as “analgesic activity only after intracerebral (icv) administration”.

In the case of `CC(=O)O.CN[C@@H](Cc1ccc(O)cc1)C(=O)N[C@H](CC(N)=O)C(=O)NCC(=O)N(C)[C@@H](Cc1ccccc1)C(=O)N[C@H](CC(N)=O)C(N)=O` [N-Methyl-L-tyrosyl-D-asparaginyl-glycyl-N-methyl-L-phenylalanyl-D-asparaginyl amide acetate], the “animals in which analgesia was observed” value (CF-1 mice; dose of 10 mg/kg, same procedure, for a period of forty five minutes) is reported as 100% and the “ED50 (analgesia, absence of writhing)” value (CF-1 mice; subcutaneous administration, at 30 minutes, limits (0.62-1.6), groups of ten CF-1 mice) is reported as 1.0 mg/kg.
